Source: ChEMBL document CHEMBL1134176, “Structure-activity relationships of novel anti-malarial agents. Part 2: cinnamic acid derivatives” (Bioorg Med Chem Lett, 2001)

Tested on: Plasmodium falciparum
Experiment: Inhibitory activity against Plasmodium falciparum Dd2 in erythrocytes
Format: functional, organism-based

Row | SMILES | IC50
1 | CCc1ccc(/C=C/C(=O)Nc2ccc(NC(=O)Cc3ccc(C)cc3)c(C(=O)c3ccccc3)c2)cc1 | 1.2 µM
2 | Cc1ccc(CC(=O)Nc2ccc(NC(=O)/C=C/c3ccccc3)cc2C(=O)c2ccccc2)cc1 | 5.8 µM
3 | Cc1ccc(CC(=O)Nc2ccc(NC(=O)/C=C/c3ccc(C=O)cc3)cc2C(=O)c2ccccc2)cc1 | 40 µM
4 | C[C@@H]1CC[C@H]2[C@@H](C)C(=O)O[C@@H]3O[C@@]4(C)CC[C@@H]1[C@]32OO4 [ARTEMISININ] | 0.018 µM
5 | CCCCOc1ccc(/C=C/C(=O)Nc2ccc(NC(=O)Cc3ccc(C)cc3)c(C(=O)c3ccccc3)c2)cc1 | 1.1 µM
6 | Cc1ccc(CC(=O)Nc2ccc(NC(=O)/C=C/c3ccc(N)cc3)cc2C(=O)c2ccccc2)cc1 | 5.5 µM
7 | C=C[C@H]1CN2CC[C@H]1C[C@H]2[C@H](O)c1ccnc2ccc(OC)cc12 [QUININE] | 0.38 µM
8 | Cc1ccc(CC(=O)Nc2ccc(NC(=O)/C=C/c3ccc(C(C)C)cc3)cc2C(=O)c2ccccc2)cc1 | 1.2 µM
9 | CC1(C)N=C(N)N=C(N)N1c1ccc(Cl)cc1 [CYCLOGUANIL] | 2.2 µM
10 | COc1ccc(/C=C/C(=O)Nc2ccc(NC(=O)Cc3ccc(C)cc3)c(C(=O)c3ccccc3)c2)cc1 | 1.3 µM
11 | CCCOc1ccc(/C=C/C(=O)Nc2ccc(NC(=O)Cc3ccc(C)cc3)c(C(=O)c3ccccc3)c2)cc1 | 0.2 µM
12 | OC(c1cc(C(F)(F)F)nc2c(C(F)(F)F)cccc12)C1CCCCN1 (stereo unspecified) [MEFLOQUINE] | 0.057 µM
13 | Cc1ccc(CC(=O)Nc2ccc(NC(=O)/C=C/c3ccc([N+](=O)[O-])cc3)cc2C(=O)c2ccccc2)cc1 | 6.5 µM
14 | O=C1C(O)=C([C@H]2CC[C@H](c3ccc(Cl)cc3)CC2)C(=O)c2ccccc21 [ATOVAQUONE] | 0.001 µM
15 | COC(=O)c1ccc(/C=C/C(=O)Nc2ccc(NC(=O)Cc3ccc(C)cc3)c(C(=O)c3ccccc3)c2)cc1 | 1 µM
16 | CCc1nc(N)nc(N)c1-c1ccc(Cl)cc1 [PYRIMETHAMINE] | 2.5 µM
17 | Cc1ccc(CC(=O)Nc2ccc(NC(=O)CCc3ccccc3)cc2C(=O)c2ccccc2)cc1 | 2.7 µM
18 | Cc1ccc(CC(=O)Nc2ccc(NC(=O)/C=C/c3ccc(Cl)cc3)cc2C(=O)c2ccccc2)cc1 | 5.5 µM
19 | Cc1ccc(CC(=O)Nc2ccc(NC(=O)/C=C/c3ccc(Br)cc3)cc2C(=O)c2ccccc2)cc1 | 3.2 µM
20 | Cc1ccc(CC(=O)Nc2ccc(NC(=O)/C=C/c3ccc(C(F)(F)F)cc3)cc2C(=O)c2ccccc2)cc1 | 5.7 µM
21 | Cc1ccc(CC(=O)Nc2ccc(NC(=O)/C=C/c3ccc(C(C)(C)C)cc3)cc2C(=O)c2ccccc2)cc1 | 3 µM
22 | Cc1ccc(/C=C/C(=O)Nc2ccc(NC(=O)Cc3ccc(C)cc3)c(C(=O)c3ccccc3)c2)cc1 | 1.4 µM
23 | Cc1ccc(CC(=O)Nc2ccc(NC(=O)/C=C/c3ccc(C=C(C#N)C#N)cc3)cc2C(=O)c2ccccc2)cc1 | 43 µM
24 | CCOc1ccc(/C=C/C(=O)Nc2ccc(NC(=O)Cc3ccc(C)cc3)c(C(=O)c3ccccc3)c2)cc1 | 0.85 µM
25 | CCCCN(CCCC)CCC(O)c1cc2c(Cl)cc(Cl)cc2c2cc(C(F)(F)F)ccc12 (stereo unspecified) [HALOFANTRINE] | 0.0093 µM
26 | Cc1ccc(CC(=O)Nc2ccc(NC(=O)/C=C/c3ccc(C#N)cc3)cc2C(=O)c2ccccc2)cc1 | > 100 µM
